{
  "source": "patent US20140005163A1",
  "about": "(NOVARTIS AG, priority 2010, published 2014)",
  "key": {"[1]": {"test_system": "PKB Ser473 phosphorylation in Rat1-myr-HA-p110 alpha cells", "assay": "Reverse protein array assay, PKB Ser473 phosphorylation in Rat1-myr-p110 alpha cells", "type": "cell-based", "conditions": "0.5 h, pAkt Ser473, 30 minutes compound incubation, read-out: p-PKB IC50", "in_short": "(§1)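 Measured: PKB Ser473 phosphorylation by reverse protein array in Rat1 cells expressing myr-HA-p110 alpha, beta or delta, after 30 min compound treatment at 37 °C with 0.2% DMSO vehicle.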"}, "PI3K gamma": {"target": "T1, PI3K gamma (Homo sapiens, UniProt P48736)", "T1 construct": "His tag (C); made in house; host or cells: baculovirus (pVL1393); Tn5 or TiniPro insect cells; construct from Roger Williams lab, MRC LMB", "assay": "PI3K gamma kinase assay (Kinase-Glo luminescence)", "type": "biochemical", "method": "In a more preferred assay, the kinase reaction is performed in a final volume of 10 μL per well of a low volume non binding CORNING, 384 well black plate (Cat. No. #3676). The final concentrations of ATP and phosphatidyl inositol (PI) in the assay are 1 μM and 10 μg/mL respectively. The reaction is started by the addition of ATP.\nThe components of the assay are added per well as follows:\n[…] in 90% DMSO per well, in columns 1-20, 8 concentrations (1/3 and 1/3.33 serial dilution step) in single. • Low control: […] of 90% DMSO in half the wells of columns 23-24 (0.45% in final). • High control: […] of reference compound (e.g. compound of Example 7 in WO 2006/122806) in the other half of columns 23-24 (2.5 μM in final). • Standard: […] of reference compound as just mentioned diluted as the test compounds in columns 21-22 • 20 mL ‘buffer’ are prepared per assay: • 200 μL of 1M TRIS HCl pH7.5 (10 mM in final) • 60 μL of 1M MgCl2 (3 mM in final) • 500 μL of 2M NaCl (50 mM in final) • 100 μL of 10% CHAPS (0.05% in final) • 200 μL of 100 mM DTT (1 mM in final) • 18.94 mL of nanopure water • 10 mL ‘PI’ are prepared per assay: • 200 μL of 1 mg/ml L-alpha-Phosphatidylinositol (Liver Bovine, Avanti Polar Lipids Cat. No. 840042C MW=909.12) prepared in 3% OctylGlucoside (10 μg/ml in final) • 9.8 mL of ‘buffer’ • 10 mL ‘ATP’ are prepared per assay: • 6.7 μL of 3 mM stock of ATP giving a final concentration of 1 μM per well • 10 mL of ‘buffer’ • 2.5 mL of each PI3K construct are prepared per assay in ‘PI’ with the following final concentration: • 10 nM PI3K alfa EMV B1075 • 25 nM beta EMV BV949 • 10 nM delta EMV BV1060 • 150 nM gamma EMV BV950 • 5 μL of ‘PI/PI3K’ are added per well. • 5 μl ‘ATP’ are added per well to start the reaction. • The plates are then incubated at room temperature for 60 minutes (alfa, beta, delta) or 120 minutes (gamma). • The reaction is terminated by the addition of 10 μL Kinase-Glo (Promega Cat. No. #6714). • The assay plates are read after 10 minutes in Synergy 2 reader (BioTek, Vermont USA) with an integration time of 100 milliseconds and sensitivity set to 191. • Output: The High control is around 60'000 counts and the Low control is 30'000 or lower • This luminescence assay gives a useful Z′ ratio between 0.4 and 0.7\nIC50 is determined by a four parameter curve fitting routine that comes along with “excel fit”. […] Alternatively, IC50 values are calculated using idbsXLfit model 204, which is a 4 parameter logistic model."}, "PI3K beta": {"target": "T2, PI3K beta (Homo sapiens, UniProt P42338)", "T2 construct": "for the full-length p110-b subunit are generated and fused by overlapping PCR; p85(iSH2) fusion partner (see partner chain) (N); His tag (C); made in house; host or cells: baculovirus; Tn5 (Trichoplusia ni) or TiniPro insect cells", "T2 sequence (P42338 with tags, fused parts or gaps limits assumed)": "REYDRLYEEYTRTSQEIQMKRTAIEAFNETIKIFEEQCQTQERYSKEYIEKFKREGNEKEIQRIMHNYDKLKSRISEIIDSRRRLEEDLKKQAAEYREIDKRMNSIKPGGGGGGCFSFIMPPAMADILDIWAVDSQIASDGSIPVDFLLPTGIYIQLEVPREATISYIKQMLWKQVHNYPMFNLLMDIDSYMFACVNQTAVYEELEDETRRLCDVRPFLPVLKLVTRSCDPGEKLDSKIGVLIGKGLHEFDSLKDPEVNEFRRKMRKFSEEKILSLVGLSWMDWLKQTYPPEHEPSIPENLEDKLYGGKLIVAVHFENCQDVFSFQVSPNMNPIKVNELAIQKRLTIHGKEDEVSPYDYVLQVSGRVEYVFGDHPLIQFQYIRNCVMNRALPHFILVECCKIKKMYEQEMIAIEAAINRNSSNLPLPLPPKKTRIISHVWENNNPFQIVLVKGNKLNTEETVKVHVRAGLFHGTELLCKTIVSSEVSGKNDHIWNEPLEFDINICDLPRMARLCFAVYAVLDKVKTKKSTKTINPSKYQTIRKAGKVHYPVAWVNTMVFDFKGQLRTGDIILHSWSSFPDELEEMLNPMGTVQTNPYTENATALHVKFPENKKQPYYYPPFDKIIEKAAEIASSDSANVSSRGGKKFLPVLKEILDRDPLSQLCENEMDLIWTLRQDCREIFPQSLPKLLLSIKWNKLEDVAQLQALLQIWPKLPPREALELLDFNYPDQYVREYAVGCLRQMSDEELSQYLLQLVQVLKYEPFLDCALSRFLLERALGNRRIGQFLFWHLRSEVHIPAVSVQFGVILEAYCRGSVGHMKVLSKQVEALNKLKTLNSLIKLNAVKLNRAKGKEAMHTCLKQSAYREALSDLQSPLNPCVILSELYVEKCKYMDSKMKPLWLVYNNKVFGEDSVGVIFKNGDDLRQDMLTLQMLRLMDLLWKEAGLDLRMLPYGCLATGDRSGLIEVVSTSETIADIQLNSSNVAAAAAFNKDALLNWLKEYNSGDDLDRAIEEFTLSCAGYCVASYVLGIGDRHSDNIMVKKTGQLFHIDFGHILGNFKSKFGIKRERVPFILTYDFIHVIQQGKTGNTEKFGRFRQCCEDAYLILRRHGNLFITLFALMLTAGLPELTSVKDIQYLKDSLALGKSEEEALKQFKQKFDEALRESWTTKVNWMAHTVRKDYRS", "assay": "PI3K beta kinase assay (Kinase-Glo luminescence)", "type": "biochemical", "in_short": "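Enzyme: BV949 p85(iSH2)-Gly linker-p110β FL-His, 25 nM. Substrate: PI 10 μg/mL. ATP: 1 μM, added to start. Buffer: Tris pH 7.5 10 mM, MgCl2 3 mM, NaCl 50 mM, CHAPS 0.05%, DTT 1 mM. RT, 60 min. Readout: Kinase-Glo. IC50 by 4-parameter fit.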"}, "[2]": {"test_system": "PKB Ser473 phosphorylation in Rat1-myr-HA-p110 beta cells", "assay": "Reverse protein array assay, PKB Ser473 phosphorylation in Rat1-myr-p110 beta cells", "type": "cell-based", "conditions": "0.5 h, pAkt Ser473, 30 minutes incubation, read-out: p-PKB IC50", "in_short": "as §1"}, "PI3K delta": {"target": "T3, PI3K delta (Homo sapiens, UniProt O00329)", "T3 construct": "for the full-length p110-d subunit are generated and fused by overlapping PCR; p85(iSH2) fusion partner (see partner chain) (N); His tag (C); made in house; host or cells: baculovirus; Tn5 (Trichoplusia ni) or TiniPro insect cells", "T3 sequence (O00329 with tags, fused parts or gaps limits assumed)": "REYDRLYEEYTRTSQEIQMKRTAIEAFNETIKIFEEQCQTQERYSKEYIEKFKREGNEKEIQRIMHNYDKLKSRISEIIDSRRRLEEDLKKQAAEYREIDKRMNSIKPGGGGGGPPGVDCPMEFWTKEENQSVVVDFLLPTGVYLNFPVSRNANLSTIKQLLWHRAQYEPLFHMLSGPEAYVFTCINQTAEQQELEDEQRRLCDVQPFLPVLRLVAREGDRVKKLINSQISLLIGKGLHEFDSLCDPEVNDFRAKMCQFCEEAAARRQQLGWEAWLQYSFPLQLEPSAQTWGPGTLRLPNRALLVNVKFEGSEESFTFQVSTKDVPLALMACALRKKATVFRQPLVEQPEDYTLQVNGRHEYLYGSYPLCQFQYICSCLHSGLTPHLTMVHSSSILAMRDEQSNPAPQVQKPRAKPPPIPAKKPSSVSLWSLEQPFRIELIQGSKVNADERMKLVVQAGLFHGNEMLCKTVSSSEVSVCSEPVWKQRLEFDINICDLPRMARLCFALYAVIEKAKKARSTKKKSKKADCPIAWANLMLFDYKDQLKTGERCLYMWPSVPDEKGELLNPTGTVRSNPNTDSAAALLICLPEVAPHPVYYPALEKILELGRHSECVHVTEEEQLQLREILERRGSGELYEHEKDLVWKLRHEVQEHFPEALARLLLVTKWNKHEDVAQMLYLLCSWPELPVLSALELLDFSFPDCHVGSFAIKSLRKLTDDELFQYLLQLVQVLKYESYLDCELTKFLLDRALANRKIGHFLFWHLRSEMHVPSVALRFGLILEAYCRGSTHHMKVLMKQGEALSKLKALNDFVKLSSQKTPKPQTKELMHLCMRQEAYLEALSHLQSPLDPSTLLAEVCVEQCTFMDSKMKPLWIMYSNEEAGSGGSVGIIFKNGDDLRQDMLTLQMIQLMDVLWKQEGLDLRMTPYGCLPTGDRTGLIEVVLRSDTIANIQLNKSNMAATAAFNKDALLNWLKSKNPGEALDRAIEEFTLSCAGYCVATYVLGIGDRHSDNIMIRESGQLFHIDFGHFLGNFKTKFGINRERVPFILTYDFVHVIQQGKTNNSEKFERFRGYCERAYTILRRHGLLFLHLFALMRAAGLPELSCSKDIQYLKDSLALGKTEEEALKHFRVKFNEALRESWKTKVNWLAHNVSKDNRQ", "assay": "PI3K delta kinase assay (Kinase-Glo luminescence)", "type": "biochemical", "in_short": "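Construct BV-1060, p85 iSH2–linker–full-length p110δ, His-tagged, at 10 nM, with 1 μM ATP and 10 μg/mL phosphatidylinositol in pH 7.5 Tris, 3 mM MgCl2, 50 mM NaCl, 0.05% CHAPS. Run 60 min at room temperature; remaining ATP read by Kinase-Glo luminescence; IC50 from 4-parameter logistic fit of 8 concentrations.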"}, "PI3K alpha": {"target": "T4, PI3K alpha (Homo sapiens, UniProt P42336)", "T4 construct": "p85(iSH2) fusion partner (see partner chain) (N); His tag (C); made in house; host or cells: baculovirus; Tn5 (Trichoplusia ni) or TiniPro insect cells", "T4 sequence (P42336 with tags, fused parts or gaps limits assumed)": "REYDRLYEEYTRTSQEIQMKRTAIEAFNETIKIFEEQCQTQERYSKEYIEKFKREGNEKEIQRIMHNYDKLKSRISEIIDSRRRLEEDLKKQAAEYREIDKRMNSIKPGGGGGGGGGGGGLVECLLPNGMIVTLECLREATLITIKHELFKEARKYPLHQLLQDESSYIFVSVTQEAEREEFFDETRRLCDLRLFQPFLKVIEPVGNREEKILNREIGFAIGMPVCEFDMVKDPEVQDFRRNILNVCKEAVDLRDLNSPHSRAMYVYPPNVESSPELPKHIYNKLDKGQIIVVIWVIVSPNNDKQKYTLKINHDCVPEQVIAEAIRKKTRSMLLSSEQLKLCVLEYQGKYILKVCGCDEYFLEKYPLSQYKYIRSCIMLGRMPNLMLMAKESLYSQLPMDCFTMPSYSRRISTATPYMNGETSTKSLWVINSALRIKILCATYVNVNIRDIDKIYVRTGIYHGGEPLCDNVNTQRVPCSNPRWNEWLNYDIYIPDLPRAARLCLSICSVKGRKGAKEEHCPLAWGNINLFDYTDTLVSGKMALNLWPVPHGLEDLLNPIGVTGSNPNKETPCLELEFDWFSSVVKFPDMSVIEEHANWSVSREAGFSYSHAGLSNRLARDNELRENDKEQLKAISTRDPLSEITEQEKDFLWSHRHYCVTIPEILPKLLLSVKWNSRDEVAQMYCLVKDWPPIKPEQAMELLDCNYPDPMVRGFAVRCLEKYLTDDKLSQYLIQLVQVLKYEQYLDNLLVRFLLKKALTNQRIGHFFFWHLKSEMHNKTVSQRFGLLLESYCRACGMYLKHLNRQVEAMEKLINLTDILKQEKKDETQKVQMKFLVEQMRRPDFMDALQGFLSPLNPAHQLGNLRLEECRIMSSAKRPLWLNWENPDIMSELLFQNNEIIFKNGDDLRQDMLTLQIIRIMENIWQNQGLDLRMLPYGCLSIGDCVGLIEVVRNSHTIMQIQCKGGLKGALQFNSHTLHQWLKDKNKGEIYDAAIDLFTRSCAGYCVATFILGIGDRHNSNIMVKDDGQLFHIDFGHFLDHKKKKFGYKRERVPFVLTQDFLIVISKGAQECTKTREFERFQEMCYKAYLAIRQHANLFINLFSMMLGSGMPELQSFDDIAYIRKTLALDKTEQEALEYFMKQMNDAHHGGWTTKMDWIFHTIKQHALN", "assay": "PI3K alpha kinase assay (Kinase-Glo luminescence)", "type": "biochemical", "in_short": "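PI3K alpha at 10 nM with 1 μM ATP and 10 μg/mL phosphatidylinositol in 10 mM TRIS pH 7.5, 3 mM MgCl2, 50 mM NaCl, 0.05% CHAPS, 1 mM DTT, 60 min at room temperature. Remaining ATP read by Kinase-Glo luminescence. IC50 by 4-parameter fit over 8 concentrations.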"}, "[3]": {"test_system": "S6 Ribosomal Protein phosphorylation Ser235/236 in TSC1 null mouse embryo fibroblast (MEF) cells", "assay": "Reverse protein array assay, S6 Ribosomal Protein phosphorylation Ser235/236 in TSC1 null MEF cells", "type": "cell-based", "conditions": "1 h, pS6 ribosomal protein Ser235/236, 60 minutes incubation, read-out: p-S6 IC50", "in_short": "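TSC1−/− MEFs, seeded and held ≥20 h at 37 °C/5% CO2, were exposed to 8-step serial compound dilutions (0.02% DMSO final; DMSO vehicle control) for 60 min at 37 °C. Cells were then lysed on ice for 10 min and lysates spotted onto reverse protein array chips.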"}, "[4]": {"test_system": "PKB Ser473 phosphorylation in Rat1-myr-HA-p110 delta cells", "assay": "Reverse protein array assay, PKB Ser473 phosphorylation in Rat1-myr-p110 delta cells", "type": "cell-based", "conditions": "read-out: p-PKB IC50", "in_short": "as §1"}, "mTOR": {"target": "T5, mTOR (Homo sapiens, UniProt P42345)", "T5 construct": "purchased Invitrogen Corporation (Carlsbad/CA, USA) PV4753", "T5 sequence (P42345 1360-2549 limits assumed)": "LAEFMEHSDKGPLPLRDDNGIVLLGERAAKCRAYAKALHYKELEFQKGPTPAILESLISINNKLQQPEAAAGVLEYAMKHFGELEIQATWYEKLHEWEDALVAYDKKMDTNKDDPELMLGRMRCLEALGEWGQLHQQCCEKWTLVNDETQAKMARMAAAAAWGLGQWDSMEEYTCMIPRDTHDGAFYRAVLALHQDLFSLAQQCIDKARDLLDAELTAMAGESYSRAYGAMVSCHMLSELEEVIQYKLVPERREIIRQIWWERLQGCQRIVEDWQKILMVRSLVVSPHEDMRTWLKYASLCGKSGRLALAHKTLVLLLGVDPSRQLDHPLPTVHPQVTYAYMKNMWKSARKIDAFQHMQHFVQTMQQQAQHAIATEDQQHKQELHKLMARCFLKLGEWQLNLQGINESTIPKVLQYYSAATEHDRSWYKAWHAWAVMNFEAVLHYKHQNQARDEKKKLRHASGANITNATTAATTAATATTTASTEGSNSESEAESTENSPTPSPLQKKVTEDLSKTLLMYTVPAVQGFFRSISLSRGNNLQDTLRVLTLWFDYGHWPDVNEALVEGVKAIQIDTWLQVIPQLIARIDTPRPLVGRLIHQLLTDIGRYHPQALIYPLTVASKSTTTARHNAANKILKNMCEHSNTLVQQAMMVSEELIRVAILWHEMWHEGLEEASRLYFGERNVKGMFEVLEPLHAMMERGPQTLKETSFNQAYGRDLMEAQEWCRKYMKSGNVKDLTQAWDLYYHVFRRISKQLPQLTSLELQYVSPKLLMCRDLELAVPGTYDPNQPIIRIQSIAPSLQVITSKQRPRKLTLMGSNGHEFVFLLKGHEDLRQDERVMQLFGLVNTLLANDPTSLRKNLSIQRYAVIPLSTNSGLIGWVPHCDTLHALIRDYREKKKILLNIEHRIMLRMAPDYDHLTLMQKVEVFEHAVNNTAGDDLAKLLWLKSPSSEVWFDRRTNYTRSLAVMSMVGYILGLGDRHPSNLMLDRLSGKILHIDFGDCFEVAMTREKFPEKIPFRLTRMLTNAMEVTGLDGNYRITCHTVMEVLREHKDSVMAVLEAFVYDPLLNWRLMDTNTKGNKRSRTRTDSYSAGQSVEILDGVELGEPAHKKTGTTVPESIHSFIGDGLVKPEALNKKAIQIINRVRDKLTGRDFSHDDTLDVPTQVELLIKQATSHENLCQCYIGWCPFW", "assay": "Biochemical assay for m-TOR by TR-FRET", "conditions": "8 μM ATP, 400 nM GFP-4EBP1, 0.5 nM mTOR", "in_short": "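Steps: ATP (8 μM final) plus GFP-4EBP1 (400 nM final) combined with mTOR (0.5 nM final), incubated at rt; buffer HEPES pH 7.5 with 10 mM MnCl2, NaCl, EGTA, DTT. Then stopped with EDTA/Tb3+-anti-p4EBP1 pT46 Ab (0.5 nM). Plates read after 15 min.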"}},
  "data": [
    {"smiles": "COc1ccc(-c2ccc3ncc4c(c3c2)n(-c2cn(C)nc2Cl)c(=O)n4C)cc1OC", "note": "[Example 1.10, 1-(3-Chloro-1-methyl-1H-pyrazol-4-yl)-8-(3,4-dimethoxy-phenyl)-3-methyl-1,3-dihydro-imidazo[4,5-c]quinolin-2-one]", "values": [
      {"measurement": "IC50", "setting": "[1]", "value": "< 5", "unit": "nM"},
      {"measurement": "IC50", "setting": "PI3K gamma", "value": 238, "unit": "nM"},
      {"measurement": "IC50", "setting": "PI3K beta", "value": 6, "unit": "nM"},
      {"measurement": "IC50", "setting": "[2]", "value": "< 5", "unit": "nM"},
      {"measurement": "IC50", "setting": "PI3K delta", "value": 10, "unit": "nM"},
      {"measurement": "IC50", "setting": "PI3K alpha", "value": 9, "unit": "nM"},
      {"measurement": "IC50", "setting": "[3]", "value": 1, "unit": "nM"},
      {"measurement": "IC50", "setting": "[4]", "value": 5, "unit": "nM"}
    ]},
    {"smiles": "CCn1nccc1-n1c(=O)n(C)c2cnc3ccc(-c4ccc(OC)nc4)cc3c21", "note": "[Example 2.6, 1-(2-Ethyl-2H-pyrazol-3-yl)-8-(6-methoxy-pyridin-3-yl)-3-methyl-1,3-dihydro-imidazo[4,5-c]quinolin-2-one]", "values": [
      {"measurement": "IC50", "setting": "[1]", "value": 141, "unit": "nM"},
      {"measurement": "IC50", "setting": "PI3K gamma", "value": 788, "unit": "nM"},
      {"measurement": "IC50", "setting": "PI3K beta", "value": 612, "unit": "nM"},
      {"measurement": "IC50", "setting": "[2]", "value": 136, "unit": "nM"},
      {"measurement": "IC50", "setting": "mTOR", "value": 162, "unit": "nM"},
      {"measurement": "IC50", "setting": "PI3K delta", "value": 85, "unit": "nM"},
      {"measurement": "IC50", "setting": "PI3K alpha", "value": 146, "unit": "nM"},
      {"measurement": "IC50", "setting": "[4]", "value": 219, "unit": "nM"}
    ]},
    {"smiles": "COc1ncc(-c2ccc3ncc4c(c3c2)n(-c2cn(C)nc2C)c(=O)n4C)cc1F", "note": "[Example 13, 1-(1,3-Dimethyl-1H-pyrazol-4-yl)-8-(5-fluoro-6-methoxy-pyridin-3-yl)-3-methyl-1,3-dihydro-imidazo[4,5-c]quinolin-2-one]", "values": [
      {"measurement": "IC50", "setting": "PI3K gamma", "value": 87, "unit": "nM"},
      {"measurement": "IC50", "setting": "PI3K beta", "value": 25, "unit": "nM"},
      {"measurement": "IC50", "setting": "mTOR", "value": 63, "unit": "nM"},
      {"measurement": "IC50", "setting": "PI3K delta", "value": 15, "unit": "nM"},
      {"measurement": "IC50", "setting": "PI3K alpha", "value": 12, "unit": "nM"},
      {"measurement": "IC50", "setting": "[3]", "value": 10, "unit": "nM"}
    ]},
    {"smiles": "Cc1nn(C)cc1-n1c(=O)n(C)c2cnc3ccc(-c4ccc(NCCO)nc4)cc3c21", "note": "[Example 21.2]", "values": [
      {"measurement": "IC50", "setting": "[1]", "value": 375, "unit": "nM"},
      {"measurement": "IC50", "setting": "PI3K gamma", "value": 391, "unit": "nM"},
      {"measurement": "IC50", "setting": "PI3K beta", "value": 205, "unit": "nM"},
      {"measurement": "IC50", "setting": "[2]", "value": 273, "unit": "nM"},
      {"measurement": "IC50", "setting": "PI3K delta", "value": 18, "unit": "nM"},
      {"measurement": "IC50", "setting": "PI3K alpha", "value": 32, "unit": "nM"},
      {"measurement": "IC50", "setting": "[3]", "value": 666, "unit": "nM"},
      {"measurement": "IC50", "setting": "[4]", "value": 602, "unit": "nM"}
    ]},
    {"smiles": "COc1cc(-c2ccc3ncc4c(c3c2)n(-c2c(C)nn(C)c2C)c(=O)n4C)ccc1O", "note": "[Example 31, 8-(4-Hydroxy-3-methoxy-phenyl)-3-methyl-1-(1,3,5-trimethyl-1H-pyrazol-4-yl)-1,3-dihydro-imidazo[4,5-c]quinolin-2-one]", "values": [
      {"measurement": "IC50", "setting": "[1]", "value": 29, "unit": "nM"},
      {"measurement": "IC50", "setting": "PI3K gamma", "value": 118, "unit": "nM"},
      {"measurement": "IC50", "setting": "PI3K beta", "value": 67, "unit": "nM"},
      {"measurement": "IC50", "setting": "[2]", "value": 49, "unit": "nM"},
      {"measurement": "IC50", "setting": "mTOR", "value": 177, "unit": "nM"},
      {"measurement": "IC50", "setting": "PI3K delta", "value": 30, "unit": "nM"},
      {"measurement": "IC50", "setting": "PI3K alpha", "value": 29, "unit": "nM"},
      {"measurement": "IC50", "setting": "[4]", "value": 64, "unit": "nM"}
    ]}
  ]
}
